{"source": "patent US10154970B2", "about": "“Methods for immunomodulation of cancer and infectious disease therapy” (The Regents of the University of California, priority 2014, dated 2018)", "key": {"IFN-γ": {"tested_on": "IFN-γ", "conditions": "for antigen-specific immune response to the PV: short-course treatment", "description": "FIG. 5. Effect of TRIP on the immune response to an antigen-specific peptide vaccine (PV). Mice received 8 weekly 10-μg doses of PV and daily oral TRIP treatment for the final 16 days of the study. Lymphocytes were isolated 48 hours after the final dose of PV for the enzyme-linked immunosorbent spot (ELISpot) assay. Data are expressed as the number of spot forming cells (SFC)/500,000 lymphocytes following exposure to medium (no peptide), scrambled peptide, and BP25 peptide.\nA total of 43 wild type C57BL/6 mice were assigned to four different treatment groups: Control (n=10); and TRIP (i.e., ospemifene) 10, 50, and 100 mg/kg (n=11, all TRIP groups). All mice received a full course of tecemotide (L-BLP25) peptide vaccine (PV) immunotherapy (eight weekly 10 μg doses administered subcutaneously (s.c.) as described in Wurz G T. et al., J. Transl. Med., 11:64 (2013)). During the final 16 days of immunotherapy, mice received daily oral doses of TRIP according to treatment group assignment. TRIP oral dosing solutions were prepared by dissolving an appropriate amount of the drug in pure dimethyl sulfoxide (DMSO) and then adding peanut oil to the desired final concentration (final DMSO concentration was 2%). All doses were administered in a volume of 100 μl using 20-gauge stainless steel oral feeding needles. Control mice were given diluent only. Forty-eight hours following the final dose of PV, all mice were euthanized for the collection of blood for cytokine analysis by multiplex and spleens for assessing immune response by enzyme-linked immunosorbent spot (ELISpot) assay.\nData are expressed as the number of spot forming cells (SFC)/500,000 lymphocytes following exposure to medium (no peptide), scrambled peptide, and BP25 peptide."}, "[1]": {"tested_on": "T-cell surface markers (CD4, CD8, PD-1, CD28)", "experiment": "Experiment 5: T-cell surface markers of spleen lymphocytes by flow cytometry", "type": "in vivo, human MUC1.Tg C57BL/6 mice", "conditions": "TRIP 100 mg/kg or letrozole 0.8 mg/kg daily oral 14 days", "description": "FIG. 11. Lymphocyte phenotypes following different hormonal treatments. (A) CD3+CD4+; (B) CD3+CD8+; (C) CD3+CD28+; (D) CD8+CD28+; (E) CD3+PD-1+; and (F) CD8+PD-1+; T cell surface markers were stained with indicated antibodies after […] of TRIP (100 mg/kg), estradiol (E2; 25 μg/kg), and letrozole (0.8 mg/kg) treatments (n=8 all groups).\nA total of 32 female human MUC1.Tg C57BL/6 mice, starting at approximately six weeks of age, were treated with urethane as described (Wurz G T. et al., J. Transl. Med., 11:64 (2013)). Two weeks following the final dose of urethane (Week 17), the mice were randomized into four treatment groups of approximately equal average weight (n=8, all groups): Control (no treatment); TRIP (i.e., ospemifene) 100 mg/kg; estradiol 25 μg/kg; and letrozole 0.8 mg/kg. TRIP and letrozole were prepared in DMSO and peanut oil as described above in Experiment 2 and administered daily for 14 days by oral gavage (100 μL). Estradiol was dissolved in 100% ethanol, diluted in PBS to achieve the desired concentration, and then administered daily for 14 days by s.c. injection at rotating sites using a 25-gauge needle. In Week 19, the study was terminated, 24 hours after the last treatments, and serum and spleens were collected for surface marker and Treg analyses.\nAfter two weeks of treatment, lymphocytes were isolated from spleen. T-cell surface markers (CD4, CD8, PD-1, CD28) and regulatory T cells (Tregs) were analyzed by flow cytometry."}, "[2]": {"tested_on": "cytotoxic T lymphocyte activity", "conditions": "TRIP 50 mg/kg daily oral 16 days + PV", "procedure": "Effects of short-course TRIP dosing regimens on cytotoxic T lymphocyte activity. Average target cell apoptosis percentages (+SEM) were assessed in control (n=10), one cycle of PV (n=11), short-course TRIP (16 days; 10 mg/kg, TRIP 10; 50 mg/kg, TRIP 50; n=11), and PV+TRIP combination (n=11) treatment groups. PV=peptide vaccine; *p<0.05.\nA total of 65 male human MUC1.Tg C57BL/6 mice underwent urethane lung tumor induction as described (Wurz G T. et al., J. Transl. Med., 11:64 (2013)) starting at approximately five weeks of age. In Week 20, six weeks after the last dose of urethane, mice were randomized into six treatment groups of approximately equal average weight: Control (n=10); TRIP (i.e., ospemifene) 10 mg/kg (n=11); TRIP 50 mg/kg (n=11); tecemotide (L-BLP25) peptide vaccine (PV) alone (n=11); TRIP 10 mg/kg+PV (n=11); and TRIP 50 mg/kg+PV (n=11). Starting in Week 20, all mice in the PV treatment groups were administered eight weekly 10 μg doses by subcutaneous (s.c.) injection (100 μl) at rotating sites using a 25-gauge needle. […]\nAverage target cell apoptosis percentages (+SEM) were assessed in control (n=10), one cycle of PV (n=11), short-course TRIP (16 days; 10 mg/kg, TRIP 10; 50 mg/kg, TRIP 50; n=11), and PV+TRIP combination (n=11) treatment groups. […]"}}, "note": "Where two headings read alike, the source gives them in different places."}
{"compound": "OCCOc1ccc(/C(=C(/CCCl)c2ccccc2)c2ccccc2)cc1", "note": "[TRIP, Z-2-[4-(4-chloro-1,2-diphenyl-but-1-enyl)-phenoxy]ethanol]", "values": [{"measurement": "IFN-γ immune response by ELISpot, TRIP combined with PV vs PV alone", "setting": "IFN-γ; TRIP 10, 50, 100 mg/kg daily oral final 16 days + 8 weekly 10 μg PV s.c.", "value": "significantly increase"}, {"measurement": "antigen-specific immune response to the PV", "setting": "IFN-γ; high (100 mg/kg) dose of TRIP", "value": "significantly increased"}, {"measurement": "antigen-specific immune response to the PV", "setting": "IFN-γ; low (10 mg/kg) dose of TRIP", "value": "significantly increased"}, {"measurement": "expression of surface markers, including CD8 and CD28, vs control", "setting": "[1]", "value": "no difference"}, {"measurement": "induction of CTL activity, PV with short-course TRIP compared to TRIP or PV treatments alone", "setting": "[2]", "value": "significantly boosted"}]}
